Test results: patent US9624288B2, “Engineered receptors and their use” (University of Pittsburgh—Of the Commonwealth System of …, priority 2012, dated 2017)
Like-named read-outs stand apart in the source and are kept apart here.

How the values were obtained:
[1] = molecular target: T1, EG3 (SEQ ID NO: 12) ELIC-GlyR (EG) Cl- channel (Dickeya chrysanthemi, UniProt P0C7B7, INS163G); assay: Two-electrode voltage clamp, amine agonist activation of the EG channel in Xenopus oocytes; type: cell-based, Erwinia chrysanthemi / human; conditions: for Hill slope / Hill coeff.: agonist dose response on EG channel
T1 construct: expressed in transfected cells; host or cells: Xenopus laevis oocytes injected with construct DNA in the pAAV vector
Protocol: (§1) For pH measurements, 10 mM MES was added. […] Non-linear regressions were performed using Prism software (Graphpad). […] (FIG. 2).

[2] = prescription drug for cystinosis; cited from earlier work
[3] = test system: CFA-induced inflammation of the hind paw; conditions: for mechanical hypersensitivity, EG channel not activated: EG rats before cysteamine versus control group
Protocol: In one experiment, 8 rats were assigned to two groups to receive either EG expression plasmid or the control plasmid […] the EG insertion. […] Thereafter, inflammation was induced in the same hind paw by complete Freund's adjuvant (CFA) injection (50 μl). Hypersensitivity was measured using a Von Frey pain-testing device after CFA injection. This test measures the maximum force applied to the paw through a flexible thin wire before paw withdrawal. Note that this version of the channel design, EG3 (SEQ ID NO: 12), requires a small agonist molecule (propylamine or cysteamine) to open the Cl^− channels.
Rats were randomly assigned to two groups to receive a subcutaneous injection of 1 mg (in 200 μl) purified EG expression vector into the left hind paw or the control plasmid vector without the EG insertion in an identical fashion. […] After CFA injections, the rats were tested both before and after cysteamine administration to assess the specific analgesic effects from the expressed EG channels.
The Institutional Animal Care and Use Committee at the University of Pittsburgh approved all animal procedures used in the studies. Male Sprague-Dawley rats, weighing 220-250 g, were obtained from Harlan Laboratories, allowed to acclimate to the housing and experimental facilities, evaluated for baseline behavioral response to thermal and mechanical pain, and then subjected to inflammatory pain model and behavioral testing. The expression vectors, 1000 μg in a volume of 200 μl phosphate-buffered saline (PBS), were injected directly into the plantar of the left hind paw with a 27-gauge needle under brief 2.5% isoflurane anesthesia. One week after the vector injection, 50 μl of CFA (Sigma, St. Louis, Mo., USA) were injected into the same hind paw subcutaneously with a 27-gauge needle under brief isoflurane anesthesia, as described previously {Fraser, 2000 #180}.
Animals were placed above a grid floor inside a plastic divider. Thresholds to the mechanical pressures applied directly onto the plantar by a blunt metal filament of 100 mm in length and 0.38 mm in diameter were assessed using a custom-made von Frey apparatus. The apparatus uses a high precision load cell (100 g capacity and 0.01 g accuracy) interfaced with a PASPORT load cell amplifier (Model PS-2205, PASCO Scientific, Roseville, Calif.) for continuously measuring the forces applied to the plantar through the metal filament. The DataStudio software from PASCO Scientific was used to record the entire time course of the applied forces and the maximum force immediately before the paw withdrawal. The threshold values were determined as a mean of at least three separate measurements under each testing condition.
Both von Frey and plantar tests were conducted using the schedule as depicted in FIG. 3a. On each testing day after CFA injection, behavioral evaluations were repeated before and at least 15 min after cysteamine administration. Cysteamine (500 μl of 100 mM solution in PBS) was injected subcutaneously elsewhere on the body to prevent tissue damage from repeated injections.

[4] = test system: CFA-induced inflammation of the hind paw; assay: Plantar (Hargreaves) test of thermal hypersensitivity after CFA-induced inflammation; type: in vivo, rat
Protocol: The plantar sensitivity to heat-induced pain was examined using a plantar algesia meter (Model 390G; IITC Life Science, Woodland Hills, Calif.; active intensity, 23%). Rats were placed inside a plastic divider on a constant-temperature glass plate and acclimated to the environment for at least 20 minutes before testing. A heat source was focused directly onto the plantar surface of the hind paw. Once activated, the apparatus applied a continuous heat stimulus to the plantar surface to evoke a distinctive reflex of paw withdrawal. The rats were examined with at least a five-minute interval between consecutive tests. Paw withdrawal latencies were recorded and averaged for each hind paw. A 22-second automatic cut-off time was set to prevent tissue damage from heating.

[5] = molecular target: T2, EGRAFY mutant (R91A, F188Y; SEQ ID NO: 15) (Dickeya chrysanthemi, UniProt P0C7B7, F187Y/INS163G/R91A); assay: Two-electrode voltage clamp, amine agonist activation of the EGRAFY mutant in oocytes; type: cell-based, Erwinia chrysanthemi / human
T2 construct: expressed in transfected cells; host or cells: Xenopus laevis oocytes
T2 sequence (P0C7B7 other isoform, or with tags, fused parts or gaps R91A/INS163G/F187Y): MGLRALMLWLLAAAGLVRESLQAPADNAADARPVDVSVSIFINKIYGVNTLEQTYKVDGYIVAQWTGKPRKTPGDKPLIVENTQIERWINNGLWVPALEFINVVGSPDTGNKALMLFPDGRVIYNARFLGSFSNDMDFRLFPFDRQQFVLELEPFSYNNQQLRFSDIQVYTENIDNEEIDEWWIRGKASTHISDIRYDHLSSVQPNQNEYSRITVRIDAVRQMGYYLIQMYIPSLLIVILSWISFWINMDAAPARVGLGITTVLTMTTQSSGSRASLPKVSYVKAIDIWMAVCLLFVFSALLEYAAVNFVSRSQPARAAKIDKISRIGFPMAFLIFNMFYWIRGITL
Protocol: as §1

EG channel = EG channel (Dickeya chrysanthemi, UniProt P0C7B7, INS163G)
Protocol: Non-linear regressions were performed using Prism software (Graphpad).

ELIC-GlyR chimeras = assay: Cysteamine response of ELIC-GlyR chimera constructs in Xenopus oocytes; type: cell-based, Erwinia chrysanthemi / human
Text: The EG chimera was constructed by fusing the extracellular domain of ELIC with the transmembrane domain of the α1 subunit of human GlyR. Five constructs were made to test the importance of interface elements at the fusion junction (pre-TM1), the loop between transmembrane helices 2 and 3 (TM23), and C-terminus (Figure S1 a). In addition, the long cytoplasmic loop was removed to facilitate homogeneous expression (i.e., “VSR . . . KID” was replaced with “[…]”). All designed constructs expressed functional channels in Xenopus oocytes and were responsive to the agonist cysteamine. The constructs mostresponsive to cysteamine, EG and EGd (Figure S1 b), included a native GlyR TM23 loop and an ELIC C-terminus (Figure S1). The fusion junction had less effect on cysteamine response (compare EG and EGd).

## NCCS [cysteamine]
[1]
  EC50: 960 ± 120 µM
  Hill slope / Hill coeff.: 1.1±0.1
[2]
  safety in clinical use: safe with no psychoactive effects
[3]; control plasmid rats (no EG), after CFA, listed as Cysteamine
  mechanical hypersensitivity / pain scores after cysteamine administration: no analgesia
[4]; control plasmid rats (no EG), after CFA
  thermal hypersensitivity after cysteamine administration: not inherently an analgesic
[4]; rats expressing EG, after CFA
  thermal hypersensitivity after cysteamine administration: significantly attenuated

## CCCN [propylamine]
[1]
  EC50: 740 ± 110 µM
  Hill slope / Hill coeff.: 0.5±0.04
[5]
  increase in potency in the EGRAFY mutant as compared to the EG channel: ~3 orders of magnitude
[5]; EGRAFY mutant, n=6
  Hill coeff.: 0.98±0.07

B1: EG channel: ELIC extracellular domain fused to human GlyR α1 transmembrane domain; amine-gated Cl- channel, delivered as expression plasmid in vivo (protein)
chain: MGLRALMLWLLAAAGLVRESLQAPADNAADARPVDVSVSIFINKIYGVNTLEQTYKVDGYIVAQWTGKPRKTPGDKPLIVENTQIERWINNGLWVPALEFINVVGSPDTGNKRLMLFPDGRVIYNARFLGSFSNDMDFRLFPFDRQQFVLELEPFSYNNQQLRFSDIQVYTENIDNEEIDEWWIRGKASTHISDIRYDHLSSVQPNQNEFSRITVRIDAVRQMGYYLIQMYIPSLLIVILSWISFWINMDAAPARVGLGITTVLTMTTQSSGSRASLPKVSYVKAIDIWMAVCLLFVFSALLEYAAVNFVSRSQPARAAKIDKISRIGFPMAFLIFNMFYWIRGITL
modifications: Engineered Chloride Channel Receptor
notes: ELIC extracellular domain fused to human GlyR α1 transmembrane domain; amine-gated Cl- channel, delivered as expression plasmid in vivo
[3]; after CFA
  mechanical hypersensitivity, EG channel not activated: did not produce measurable changes
[3]; after CFA, listed as EG
  mechanical hypersensitivity, EG channel not activated: no measureable effects
[3]; after CFA, listed as EG channels
  mechanical hypersensitivity, EG channel not activated: little measurable changes
[3]; rat, in vivo
  basal mechanical and thermal thresholds: neither EG nor the control plasmids caused measureable changes
EG channel
  shift in reversal potential upon replacing Na+ with choline: no significant shift
EG channel; 130 mM external solution
  shift in reversal potential upon replacing Cl- with gluconate: 50 mV
ELIC-GlyR chimeras
  cysteamine response of the construct: mostresponsive
[4]; EG rats before cysteamine versus control group
  hypersensitivity to heat-induced pain, EG channel not activated: partially alleviated
[4]; after CFA, EG n=4, control n=5
  latency to paw withdrawal, EG injection compared to the control: significant attenuation of thermal hypersensitivity
